Assay: xn = mol fraction of the nth substance listed
Conditions: 101 kPa

CC[n+]1ccn(C)c1.COS(=O)(=O)[O-] + CCCCCCCO
speed of sound [m/s]
Conditions | x1 = 0.0836 | x1 = 0.1703 | x1 = 0.2602 | x1 = 0.3537 | x1 = 0.4508 | x1 = 0.5518 | x1 = 0.657 | x1 = 0.7665 | x1 = 0.8808
298.15 K | 1330.6 | 1341.3 | 1357.7 | 1380.4 | 1410.5 | – | 1499.2 | – | 1646.1
303.15 K | 1319.6 | 1330.5 | 1346.9 | 1369.7 | 1399.9 | 1438.8 | 1488.8 | – | 1636.2
308.15 K | 1299.7 | 1310.5 | 1327 | – | 1380.2 | 1419.4 | 1469.8 | 1534.7 | 1619.5

— a compilation of properties of binary mixtures (doi:10.1016/j.molliq.2017.05.115)
